Key:
Type in all cases: cell-based
[1] = target: T1, IKZF3 Aiolos (Homo sapiens, UniProt Q96SW2+Q9UKT9); test: Jurkat Cellular Degradation Assay, IKZF3; design: endogenous in cells; conditions: Jurkat cells, 72 h; for Dmax: human, 100% = complete degradation, 0% = no detectable degradation, read-out: IKZF3 Aiolos max % deg. observed
Procedure: Jurkat cells were plated at 80,000 cells/well in 40 μL RPMI+10% FBS in a 384-well cell culture plate prior to using acoustic dispensing technology for adding a compound of interest. Cell cultures were incubated for 72 h at 37° C. and 5% CO2. In order to facilitate analysis, cell cultures were spun down at 200 rpm for 5 min and the supernatant was discarded. After shaking the plate to dislodge the cell pellet, cells were resuspended in 50 μL of Fixation Buffer (eBioscience FoxP3 buffer set 00-5523-00) for 60 min at room temperature. After centrifuging and discarding the supernatant, cells were permeabilized with 50 μL of Permeabilization buffer (eBioscience FoxP3 buffer set 00-5523-00) for 10 min at room temperature. Following permeabilization, cells were spun down and the supernatant was replaced with 20 μL fluorescently labelled antibodies against Helios, Ikaros and Aiolos or corresponding Isotype controls in 1× Permeabilization buffer (Ikaros-Alexa488 [Biolegend, Cat #368408, 1:50], Helios-PE [CST, Cat #29360, 1:50], Aiolos-Alexa647 [Biolegend, Cat #371106 Biolegend, 1:25]) and staining reactions were incubated for 1 h at room temperature while protected from light. Subsequently, 30 μL of 1× Permeabilization buffer was added prior to centrifuging the cells and discarding the supernatant. Stained cells were resuspended in 25 μL of flow cytometry staining buffer [PBS+0.2% bovine serum albumin (BSA)] and analyzed using an Intellicyt Ique Plus flow cytometer.
(§1) Table A-1 lists the maximum observed degradation of the IKZF1 protein, IKZF2 protein, and IKZF3 protein as measured in the Jurkat Cellular Degradation assay. The results in Table A-1 were rounded to two digits. In the Jurkat Cellular Degradation assay, a value of 100% indicated no detectable protein remaining or complete degradation of the protein; and a value of 0% indicated no detectable degradation of the protein by the test compound.

[2] = target: IKZF1 Ikaros (Homo sapiens, UniProt Q13422+Q96SW2); test: Human CD8^+ T Cell Reprogramming Assay, IKZF1; design: Cryopreserved healthy donor human peripheral blood mononuclear cells (PBMC); endogenous in cells; host or cells: human PBMC from healthy donors (CD8+ T cells by flow cytometry); conditions: human PBMC, CD8+ T cells; for Dmax: human, 24 h, read-out: IKZF1 Ikaros Maximum Observed Degradation
IKZF1 Ikaros, sequence (Q13422 whole entry): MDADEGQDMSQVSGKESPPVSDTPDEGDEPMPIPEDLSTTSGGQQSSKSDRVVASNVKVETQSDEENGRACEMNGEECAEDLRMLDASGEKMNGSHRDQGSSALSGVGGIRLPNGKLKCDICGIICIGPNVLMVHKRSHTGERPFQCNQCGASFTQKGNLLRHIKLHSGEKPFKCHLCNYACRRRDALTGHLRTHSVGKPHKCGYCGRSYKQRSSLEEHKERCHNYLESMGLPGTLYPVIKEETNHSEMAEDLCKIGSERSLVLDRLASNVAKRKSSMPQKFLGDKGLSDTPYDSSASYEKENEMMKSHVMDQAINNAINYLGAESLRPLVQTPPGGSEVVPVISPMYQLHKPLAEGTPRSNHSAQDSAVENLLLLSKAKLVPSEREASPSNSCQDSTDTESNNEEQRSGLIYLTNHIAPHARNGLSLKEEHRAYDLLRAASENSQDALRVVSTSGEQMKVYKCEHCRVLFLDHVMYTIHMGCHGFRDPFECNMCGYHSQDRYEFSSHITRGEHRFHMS
IKZF1 Ikaros, sequence (Q96SW2 whole entry): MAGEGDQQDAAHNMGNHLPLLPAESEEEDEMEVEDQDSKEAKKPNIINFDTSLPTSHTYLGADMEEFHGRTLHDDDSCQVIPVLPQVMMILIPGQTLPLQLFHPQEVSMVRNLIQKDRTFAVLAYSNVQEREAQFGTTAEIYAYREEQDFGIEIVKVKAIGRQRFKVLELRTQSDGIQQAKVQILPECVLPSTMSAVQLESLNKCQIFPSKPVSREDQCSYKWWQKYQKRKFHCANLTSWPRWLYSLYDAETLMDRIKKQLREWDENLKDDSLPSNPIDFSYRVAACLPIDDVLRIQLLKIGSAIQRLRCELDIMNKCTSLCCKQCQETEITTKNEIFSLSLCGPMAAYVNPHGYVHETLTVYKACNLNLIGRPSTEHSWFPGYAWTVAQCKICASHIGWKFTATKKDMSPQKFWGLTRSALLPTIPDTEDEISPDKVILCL
IKZF1 Ikaros, sequence (Q16531 whole entry partner): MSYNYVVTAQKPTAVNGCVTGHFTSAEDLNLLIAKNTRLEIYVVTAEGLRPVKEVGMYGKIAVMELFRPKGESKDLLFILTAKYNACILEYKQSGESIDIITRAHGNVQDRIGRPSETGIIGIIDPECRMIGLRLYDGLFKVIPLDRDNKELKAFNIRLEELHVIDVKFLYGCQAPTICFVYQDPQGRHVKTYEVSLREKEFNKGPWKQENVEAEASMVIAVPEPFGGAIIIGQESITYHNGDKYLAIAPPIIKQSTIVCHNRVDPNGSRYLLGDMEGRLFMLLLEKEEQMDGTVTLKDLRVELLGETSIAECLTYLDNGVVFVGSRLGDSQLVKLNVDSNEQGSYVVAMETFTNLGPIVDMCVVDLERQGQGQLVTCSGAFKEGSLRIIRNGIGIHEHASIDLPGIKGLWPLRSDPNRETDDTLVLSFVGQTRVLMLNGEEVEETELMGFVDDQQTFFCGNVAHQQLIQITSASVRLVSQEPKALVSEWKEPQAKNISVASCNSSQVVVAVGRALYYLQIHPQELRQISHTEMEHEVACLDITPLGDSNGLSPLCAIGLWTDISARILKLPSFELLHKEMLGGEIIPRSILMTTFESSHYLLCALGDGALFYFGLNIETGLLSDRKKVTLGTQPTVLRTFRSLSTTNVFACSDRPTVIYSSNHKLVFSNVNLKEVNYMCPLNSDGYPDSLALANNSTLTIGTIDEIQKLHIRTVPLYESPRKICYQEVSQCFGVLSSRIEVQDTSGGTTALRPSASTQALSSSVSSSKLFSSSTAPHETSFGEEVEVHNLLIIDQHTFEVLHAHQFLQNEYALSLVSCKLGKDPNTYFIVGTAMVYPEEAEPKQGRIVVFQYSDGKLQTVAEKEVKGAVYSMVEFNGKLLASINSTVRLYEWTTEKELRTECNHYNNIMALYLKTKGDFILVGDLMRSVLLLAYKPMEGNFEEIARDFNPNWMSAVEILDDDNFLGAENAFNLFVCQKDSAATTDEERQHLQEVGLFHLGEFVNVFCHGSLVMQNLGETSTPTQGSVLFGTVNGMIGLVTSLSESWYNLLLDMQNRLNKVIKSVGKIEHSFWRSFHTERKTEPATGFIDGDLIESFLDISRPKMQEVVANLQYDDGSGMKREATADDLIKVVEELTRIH
Procedure: (§2) Cryopreserved healthy donor human peripheral blood mononuclear cells (PBMC) from healthy donors were thawed and seeded at 500,000 cells/well of 96-well round bottom plates in RPMI 1640 media (Gibco) supplemented with 10% FBS, Pen/Strep (Gibco), MEM-NEAA (Gibco), and sodium pyruvate (Gibco). Cells were treated with titrated doses of compound for 24 hours at 37° C., 5% CO2 before analyzing by flow cytometry.
(§3) For flow cytometry staining, cells were washed twice with flow cytometry staining buffer (Thermo Fisher) and incubated in Human Tru-stain Fc block (Biolegend) for 10 minutes before adding eFluor780 viability dye (Thermo Fisher) and surface marker antibody cocktail containing LD-eFluor780, CD3-BUV-395, CD4-BUV805, CD8-FITC, and CD25-BV605 for 30 minutes at 4° C. Cells were then fixed and permeabilized by incubation with permeabilization buffer (eBioscience FoxP3 buffer set 00-5523-00) for 30 minutes at 4° C. as per the kit manufacturer's instructions. Cells were washed twice with the Perm/Wash buffer supplied in the kit as per the manufacturer's instructions and incubated overnight at 4° C. with an intracellular antibody cocktail comprised of antibodies specific for the transcription factors (i.e., Foxp3-BV421, HELIOS-PE-Cy7, EOS-PE, IKAROS-PECF594, AIOLOS-AF647). Cells were washed twice with Perm/Wash buffer and resuspended in flow cytometry staining buffer (Thermo Fisher) prior to acquisition. Sample acquisition and analysis was performed using a BD LSRFortessa (BD Biosciences) flow cytometer. Single-stain controls for each fluorochrome were prepared using UltraComp eBead Compensation Beads (Thermo Fisher). Data were analyzed using FlowJo version 10 and GraphPad Prism Software.
as §1, with “D-1” for “A-1”, “protein” for “protein, IKZF2 protein,”, “Human CD8^+ T Cell Reprogramming” for “Jurkat Cellular Degradation”

[3] = target: T1, IKZF3 Aiolos; test: Human CD8^+ T Cell Reprogramming Assay, IKZF3; design: Cryopreserved healthy donor human peripheral blood mononuclear cells (PBMC); endogenous in cells; host or cells: human PBMC from healthy donors (CD8+ T cells by flow cytometry); conditions: human PBMC, CD8+ T cells, 24 hours; for Dmax / IKZF3 Aiolos Maximum Observed Degradation: 100% = complete degradation; for Dmax: read-out: IKZF3 Aiolos Maximum Observed Degradation
Procedure: as §2, §3
as §1, with “D-1” for “A-1”, “protein” for “protein, IKZF2 protein,”, “Human CD8^+ T Cell Reprogramming” for “Jurkat Cellular Degradation”

[4] = concentration reducing protein level by 50% vs DMSO

T1 sequence (Q9UKT9 whole entry): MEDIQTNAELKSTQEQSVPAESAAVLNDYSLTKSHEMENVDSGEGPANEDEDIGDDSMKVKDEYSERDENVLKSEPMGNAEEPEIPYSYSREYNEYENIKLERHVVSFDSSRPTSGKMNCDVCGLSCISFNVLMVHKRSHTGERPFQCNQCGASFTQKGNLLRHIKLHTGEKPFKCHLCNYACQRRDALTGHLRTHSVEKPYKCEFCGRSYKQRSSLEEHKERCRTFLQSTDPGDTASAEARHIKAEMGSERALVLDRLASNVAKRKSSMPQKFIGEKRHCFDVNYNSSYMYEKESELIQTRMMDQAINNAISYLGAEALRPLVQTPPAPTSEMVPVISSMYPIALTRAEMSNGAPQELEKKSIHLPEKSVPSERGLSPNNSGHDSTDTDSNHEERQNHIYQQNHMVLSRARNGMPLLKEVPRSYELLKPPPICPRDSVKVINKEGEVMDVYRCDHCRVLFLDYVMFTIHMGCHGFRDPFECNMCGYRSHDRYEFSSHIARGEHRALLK
T1 sequence (Q96SW2 whole entry): as the sequence (Q96SW2 whole entry) above
T1 sequence (Q16531 whole entry partner): as the sequence (Q16531 whole entry partner) above

Dmax [1] [%] | Dmax ([2]; 100% = complete degradation) [%] | Dmax [3] [%] | DC50 [1, 4] [µM] | IKZF1 Ikaros Maximum Observed Degradation ([2]; 24 hours, 100% = complete degradation, 1440 min) [%] | DC50 ([2]; 24 hours, concentration reducing protein level by 50% vs DMSO) [µM] | IKZF3 Aiolos Maximum Observed Degradation ([3]; 1440 min) | DC50 [3, 4] [µM] | IKZF3 Aiolos Maximum Observed Degradation [3] [%] | Structure (SMILES)
15 | 17 | 0 | – | – | – | – | – | – | O=C1CCC(n2cc(-c3ccc(Br)cc3F)oc2=O)C(=O)N1 (stereo not drawn) [Comparative Compound B, 3-(5-(4-bromo-2-fluorophenyl)-2-oxooxazol-3(2H)-yl)piperidine-2,6-dione]
52 | 68 to 69 | 69 to 74 | 9.01 | 69 | 0.064 to 0.094 | 69-74% | 0.022 to 0.025 | – | Cc1cc(-c2ccc(-c3cn(C4CCC(=O)NC4=O)c(=O)o3)c(F)c2)nc(N)c1OC(F)F (stereo not drawn) [Example 1, 3-(5-(4-(6-Amino-5-(difluoromethoxy)-4-methylpyridin-2-yl)-2-fluorophenyl)-2-oxooxazol-3(2H)-yl)piperidine-2,6-dione]
46 | 74 | 80 | – | – | – | – | – | 80 | O=C1CCC(n2cc(-c3ccccc3)oc2=O)C(=O)N1 (stereo not drawn) [Comparative Compound A, 3-(2-oxo-5-phenyloxazol-3(2H)-yl)piperidine-2,6-dione]

Reference: patent US20260327216A1, “SUBSTITUTED OXAZOLONE COMPOUND FOR DECREASING LEVELS OF IKZF I-4 PROTEINS” (BRISTOL-MYERS SQUIBB COMPANY, priority 2023, published 2026)
